# Test results published in patent publication US7465805B2, “Isoxazoline derivatives and their use as herbicides” (Syngenta Limited, priority 2004, dated 2008).
# Tests used:
# [1] = tested on: Monocotyledonous and dicotyledonous test plants; test: Herbicidal action, application pre-emergence (Example B1); type: in vivo; design: key: 10=total damage to plant; 0=no damage to plant; conditions: 1000 g/ha, scale 10=total damage to plant, 0=no damage to plant, evaluated after 9 or 13 days
# Procedure: Monocotyledonous and dicotyledonous test plants were sown in sterilised standard soil in seed trays each having 96 cells. After one day (pre-emergence) or after 8 to 9 days cultivation (post-emergence) under controlled conditions in a climatic chamber (cultivation at 17/23° C.; 13 hours light; 50-60% humidity; after application at 19/24° C.), the plants were treated with an aqueous spray solution of 1000 mg/l of the active ingredient used (including 10% DMSO as solvent). The plants were grown on in the climatic chamber until the test was evaluated (10=total damage to plant, 0=no damage to plant) after 9 or 13 days.
# [2] = tested on: maize (Marista); test: Pre-emergent safening test on maize (Example E1); type: in vivo; conditions: Comp. 1.01 WP 25% AW/W alone, evaluated after 14 days
# Procedure: The test plants were sown in seed trays under greenhouse conditions. A standard earth was used as the culture substrate. In a pre-emergent stage, the herbicides were applied both by themselves and in a mixture with safeners to the soil surface. The application was carried out with an aqueous suspension of the test substances, prepared from a 25% wettable powder (Example F3, b according to WO 97/34485) or from a suspension concentrate (Example F8 according to WO 97/34485), to achieve a field equivalent of 200 1/ha. The tests were evaluated after 14 days (100%=plants completely dead; 0%=no phytotoxic action on the plants).
SMILES,Herbicidal action on Agrostis (damage rating) [1],Herbicidal action on Digitaria (damage rating) [1],Herbicidal action on Poa (damage rating) [1],Herbicidal action on Setaria (damage rating) [1],phytotoxic action on maize (100%=plants completely dead; 0%=no phytotoxic action on the plants) ([2]; 200 g/ha) [%],phytotoxic action on maize (100%=plants completely dead; 0%=no phytotoxic action on the plants) ([2]; 400 g/ha) [%],melting point [°C]
CC(Cl)OC(=O)N=S(=O)(Cc1c(F)cccc1F)C1=NOC(C)(C)C1 (mixture of isomers) [1.17],10,8,10,8,,,
Cn1nc(C(F)(F)F)c(CS(=N)(=O)C2=NOC(C)(C)C2)c1Cl (centres unmarked) [2.01],10,10,10,10,,,
CC1(C)CC(S(=N)(=O)Cc2c(F)cccc2C(F)(F)F)=NO1 (centres unmarked) [1.32],10,10,10,9,,,
CC1(C)CC(S(=N)(=O)Cc2c(F)cccc2F)=NO1 (centres unmarked) [Comp. 1.01],10,10,10,9,67.5,62.5,
CC(C)(C)OC(=O)N=S(=O)(Cc1c(F)cccc1F)C1=NOC(C)(C)C1 (centres unmarked) [1.06],9,7,6,10,,,
CC1(C)CC(S(=N)(=O)Cc2ccc(F)cc2F)=NO1 (centres unmarked) [1.30],10,10,10,8,,,
"CC1(C)CC(S(=O)(Cc2c(F)cccc2F)=NC(=O)C(F)(F)F)=NO1 (centres unmarked) [1.04, 3-{2,6-difluoro-phenylmethane(N-trifluoromethyl-carbonyl)sulfoximinyl)-5,5-dimethyl-4,5-dihydroisoxazole]",10,10,10,10,,,143 to 144
"CN=S(=O)(Cc1c(F)cccc1F)C1=NOC(C)(C)C1 (centres unmarked) [1.08, 3-{2,6-difluoro-phenylmethane(N-methyl)sulfoximinyl)-5,5-dimethyl-4,5-dihydroisoxazole]",10,7,10,9,,,
CC1(C)CC(S(=O)(Cc2c(F)cccc2F)=NC(=O)c2cccnc2Cl)=NO1 (centres unmarked) [1.21],10,9,10,9,,,
CC1(C)CC(S(=N)(=O)Cc2cc(F)ccc2F)=NO1 (centres unmarked) [1.34],10,9,10,8,,,
CC1(C)CC(S(=N)(=O)C(F)c2ccccc2OC(F)(F)F)=NO1 (mixture of isomers) [1.56],10,9,10,8,,,
CC1(C)CC(S(=N)(=O)Cc2ccccc2OC(F)(F)F)=NO1 (centres unmarked) [1.24],10,9,0,8,,,
CC1(C)CC(S(=N)(=O)C(F)(F)c2c(F)cccc2F)=NO1 (centres unmarked) [1.22],10,10,10,10,,,
CC(c1c(F)cccc1F)S(=O)(=NC(=O)C(F)(F)F)C1=NOC(C)(C)C1 (centres unmarked) [1.19],10,9,6,9,,,
CC1(C)CC(S(=N)(=O)C(Cl)c2c(F)cccc2F)=NO1 (mixture of isomers) [1.02],10,10,10,10,,,
CC1(C)CC(S(=O)(=NC(=O)C(F)(F)F)C(Cl)c2c(F)cccc2F)=NO1 (centres unmarked) [1.05],10,9,10,9,,,
CC1(C)CC(S(=O)(Cc2c(F)cccc2F)=NC=O)=NO1 (centres unmarked) [1.13],10,9,10,9,,,
CC1(C)CC(S(=N)(=O)Cc2cc(F)cc3c2OCOC3)=NO1 (centres unmarked) [1.48],0,8,0,8,,,
CC1(C)CC(S(=N)(=O)Cc2cccc(F)c2F)=NO1 (centres unmarked) [1.29],10,8,10,6,,,
CC(c1c(F)cccc1F)S(=O)(=NC(=O)C(F)(F)F)C1=NOC(C)(C)C1 (centres unmarked) [1.20],9,8,4,8,,,
CC1(C)CC(S(=O)(Cc2c(F)cccc2F)=NC(=O)c2ccc(Cl)cc2)=NO1 (centres unmarked) [1.03],7,8,10,8,,,154 to 156
Cc1ccc(F)c(CS(=N)(=O)C2=NOC(C)(C)C2)c1F (centres unmarked) [1.28],10,9,10,8,,,
Cc1ccccc1CS(=N)(=O)C1=NOC(C)(C)C1 (centres unmarked) [1.27],5,8,0,5,,,
CC1(C)CC(S(=N)(=O)Cc2ccccc2C(F)(F)F)=NO1 (centres unmarked) [1.31],10,8,8,8,,,
CC1(C)CC(S(=O)(=NC(=O)c2ccccc2)C(F)c2c(F)cccc2F)=NO1 (centres unmarked) [1.35],10,8,10,8,,,
CC(=O)N=S(=O)(Cc1c(F)cccc1F)C1=NOC(C)(C)C1 (centres unmarked) [1.07],10,9,10,9,,,
CC1(C)CC(S(=N)(=O)Cc2ccccc2OC(F)F)=NO1 (centres unmarked) [1.25],10,9,10,8,,,
CC1(C)CC(S(=O)(Cc2c(F)cccc2F)=NC(=O)c2ccccc2)=NO1 (centres unmarked) [1.36],10,5,0,7,,,
CC1(C)CC(S(=O)(Cc2c(F)cccc2F)=N[N+](=O)[O-])=NO1 (centres unmarked) [1.15],10,9,10,8,,,
"CC1(C)CC(S(=O)(Cc2c(F)cccc2F)=NS(=O)(=O)C(F)(F)F)=NO1 (centres unmarked) [1.14, 3-{2,6-difluoro-phenylmethane(N-trifluoromethylsulphonyl)-sulfoximinyl)-5,5-dimethyl-4,5-dihydroisoxazole]",10,7,10,0,,,108
